Measured values: paper PMC7806715, “Discovery of small molecules targeting the tandem tudor domain of the epigenetic factor UHRF1 using fragment-based ligand discovery” (Scientific Reports, 2021)
Numbering of substitutions follows the chain as printed.

Columns and labels:
[1] = target: T1, TTD-PHD RR295/296AA mutant vs. H3K9me3 peptide (Homo sapiens, UniProt Q96T88, R295A/R296A); experiment: TR-FRET assay: TTD-PHD RR295/296AA mutant binding to H3K9me3 peptide; format: biochemical; settings: 2.5 mM 2,4-lutidine
T1 construct: made in house; host or cells: E. coli (host printed for TTD-PHD in general: Rosetta (DE3))
T1 sequence (Q96T88 123-366 R295A/R296A): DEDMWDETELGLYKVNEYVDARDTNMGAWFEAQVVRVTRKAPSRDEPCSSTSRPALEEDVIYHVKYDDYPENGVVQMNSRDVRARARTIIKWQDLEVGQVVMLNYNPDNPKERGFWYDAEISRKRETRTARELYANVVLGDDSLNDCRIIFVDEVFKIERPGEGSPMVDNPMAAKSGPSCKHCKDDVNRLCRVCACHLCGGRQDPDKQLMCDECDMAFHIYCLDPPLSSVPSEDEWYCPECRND
Method: The fragment screen was carried out on low volume 384-well white plates (Corning 4512) and the assay was performed at room temperature. […] After 1 h of incubation, the fluorescent signals at 665 nm and 620 nm of each plate were measured by the Tecan Infinite M1000 plate reader (excitation 340 nm, 60 μs lag time, and 500 μs integration time) and the TR-FRET signal was calculated by the ratio of 665 nm/620 nm fluorescent signal. For the fragment screen, on seven of the library plates there were 32-wells of DMSO control, while there were 8-wells of DMSO control in the last plate. […] The only difference was that the final concentration of […] assay, while the final concentration of His6-UHRF1-FL was 200 nM and biotin-H3K9me3 peptide was 100 nM for the His6-UHRF1-FL TR-FRET assay. The buffer pH was 7.5 for the His6-TTD-PHD and His6-UHRF1-FL assays.

[2] = target: T2, His6-TTD-PHD (aa 123–366) wild type vs. H3K9me3 peptide (Homo sapiens, UniProt Q96T88); experiment: TR-FRET assay: His6-TTD-PHD wild type binding to H3K9me3 peptide; format: biochemical
T2 construct: made in house; host or cells: Rosetta (DE3) E. coli, pMCSG7
T2 sequence (Q96T88 123-366): T1 sequence (Q96T88 123-366 R295A/R296A) with A173R, A174R
Method: To test this hypothesis, we generated two TTD-PHD mutants: (1) S298D, which mimics phosphorylation at Ser298 and (2) RR295/296AA, which prevents Arg295 and Arg296 of the TTD-PHD linker from contacting the Arg binding cavity of TTD. […] The fragment screen was carried out on low volume 384-well white plates (Corning 4512) and the assay was performed at room temperature. The TR-FRET reagent mix contained 200 nM of biotinylated-H3K9me3 peptide (Anaspec), 250 nM of His6-TTD, 25 nM of streptavidin-d2 (CisBio), and 1 × anti-6His-Tb cryptate Gold (Cisbio) in TR-FRET buffer (50 mM sodium phosphate, pH 7, 150 mM NaCl, 1 mM DTT, and 0.1% Triton-X-100). During the screen, 5 μl of TR-FRET reagent mix was dispensed into each well, and 100 nl of chemical fragments stock (10 mM in DMSO) was added to each well by pintool using Tecan Freedom Evo liquid handler to make the final compound concentration 196 μM. After 1 h of incubation, the fluorescent signals at 665 nm and 620 nm of each plate were measured by the Tecan Infinite M1000 plate reader (excitation 340 nm, 60 μs lag time, and 500 μs integration time) and the TR-FRET signal was calculated by the ratio of 665 nm/620 nm fluorescent signal. For the fragment screen, on seven of the library plates there were 32-wells of DMSO control, while there were 8-wells of DMSO control in the last plate. The TR-FRET assays for the interactions between His6-TTD-PHD and His6-UHRF1-FL binding to biotinylated-H3K9me3 (1-20) peptide were similar to the assay for His6-TTD. The only difference was that the final concentration of […] assay, while the final concentration of His6-UHRF1-FL was 200 nM and biotin-H3K9me3 peptide was 100 nM for the His6-UHRF1-FL TR-FRET assay. The buffer pH was 7.5 for the His6-TTD-PHD and His6-UHRF1-FL assays. The His6-TTD and His6-TTD-PHD proteins (30 μM) were treated with PKA (P2645, Sigma) at 0.5 U/μl at 30 °C for 1 h in the reaction buffer (50 mM Tris, pH 7.5, 10 mM MgCl2, 0.02% Triton-X-100, 1 mM ATP, 1 mM DTT). The untreated sample was incubated at 30 °C for 1 h in same buffer condition without the addition of PKA. […]

Cc1ccnc(C)c1 [2,4-lutidine]
inhibition of binding to H3K9me3 peptide [1]: 57.6% | inhibition of His6-TTD-PHD interaction with H3K9me3 peptide (in words) ([2]; dose-response, side by side with His6-TTD): only weakly inhibits | effect of PKA treatment of His6-TTD-PHD on inhibition of H3K9me3 peptide binding (in words) ([2]; protein treated with PKA and ATP 1 h at 30 °C): improves the ability | inhibition of binding to H3K9me3 peptide ([2]; wild type TTD-PHD, 2.5 mM 2,4-lutidine): 7.9%
